# Patent US10961202B2, “Bis-benzimidazole compounds and methods of using the same” (THE SCRIPPS RESEARCH INSTITUTE, priority 2017, dated 2021)
# System: r(CUG)12-MBNL1 complex
# Experiment: Inhibition of the r(CUG)12-MBNL1 complex measured by TR-FRET
# Type: biochemical
# Details: 80 nM RNA, 60 nM MBNL1-His6
SMILES,IC50 (Table M),IC50 (Table L)
C[C@@H](CNC(=O)c1ccc(-c2nc3ccc(-c4ccc5nc(-c6ccc(C(=O)NCCN(C)C)cc6)[nH]c5c4)cc3[nH]2)cc1)NC(=O)c1ccc(-c2nc3ccc(-c4ccc5nc(-c6ccc(C(=O)NCCN(C)C)cc6)[nH]c5c4)cc3[nH]2)cc1 [Compound 442],6.7 µM,–
CN(C)CCNC(=O)c1ccc(-c2nc3ccc(-c4ccc5nc(-c6ccc(C(=O)NCCCOCCOCCOCCCNC(=O)c7ccc(-c8nc9ccc(-c%10ccc%11nc(-c%12ccc(C(=O)NCCN(C)C)cc%12)[nH]c%11c%10)cc9[nH]8)cc7)cc6)[nH]c5c4)cc3[nH]2)cc1 [Compound 429],9.6 µM,–
CN(C)CCCNC(=O)c1ccc2nc(-c3ccc(-c4nc5ccc(OCCCN(C)C)cc5[nH]4)cc3)[nH]c2c1 [Compound 239],24.8 µM,–
"CN(C)CC#CCOc1ccc2nc(-c3ccc(-c4nc5ccc(OCC#CCN(C)C)cc5[nH]4)cc3)[nH]c2c1 [Compound 226, 4,4′-((2,2′-(1,4-phenylene)bis(1H-benzo[d]imidazole-6,2-diyl))bis(oxy))bis(N,N-dimethylbut-2-yn-1-amine)]",> 200 µM,–
CCN(CC)C(=O)COc1ccc(-c2nc3cc(-c4ccc5[nH]c(-c6ccc(OCC(=O)N(CC)CC)cc6)nc5c4)ccc3[nH]2)cc1 [Compound 349],> 200 µM,–
CN(C)CCCOc1ccc2nc(-c3ccc(-c4nc5ccc(OCCCN(C)C)cc5n4C)cc3)[nH]c2c1 [Compound 312],> 200 µM,–
"CN(C)CCCOc1ccc2nc(-c3ccc(-c4nc5ccc(OCCCC#N)cc5[nH]4)cc3)[nH]c2c1 [Compound 241, 4-((2-(4-(6-(3-(dimethylamino)propoxy)-1H-benzo[d]imidazol-2-yl)phenyl)-1H-benzo[d]imidazol-6-yl)oxy)butanenitrile]",64.7 µM,–
CN(C)CCNC(=O)c1ccc(-c2nc3ccc(-c4ccc5nc(-c6ccc(C(=O)NCCCN(C)CCCNC(=O)c7ccc(-c8nc9ccc(-c%10ccc%11nc(-c%12ccc(C(=O)NCCN(C)C)cc%12)[nH]c%11c%10)cc9[nH]8)cc7)cc6)[nH]c5c4)cc3[nH]2)cc1 [Compound 451],14 µM,–
CC(CNC(=O)c1ccc(-c2nc3cc(-c4ccc5[nH]c(-c6ccc(C(=O)NCCN(C)C)cc6)nc5c4)ccc3[nH]2)cc1)NC(=O)c1ccc(-c2nc3cc(-c4ccc5[nH]c(-c6ccc(C(=O)NCCN(C)C)cc6)nc5c4)ccc3[nH]2)cc1 (centres unmarked) [Compound 411],1.91 µM,–
CN(C)CCCOc1ccc2nc(-c3ccc(-c4nc5ccc(OCCCC(=O)NCCN(C)C)cc5[nH]4)cc3)[nH]c2c1 [Compound 318],> 200 µM,–
c1cc2nc(-c3ccc(-c4nc5ccc(OCCN6CCOCC6)cc5[nH]4)cc3)[nH]c2cc1OCCN1CCOCC1 [Compound 186],> 200 µM,–
"N#Cc1cccc(Oc2ccc3nc(-c4ccc(-c5nc6ccc(Oc7cccc(C#N)c7)cc6[nH]5)cc4)[nH]c3c2)c1 [Compound 230, 3,3′-((2,2′-(1,4-phenylene)bis(1H-benzo[d]imidazole-6,2-diyl))bis(oxy))dibenzonitrile]",> 200 µM,–
FC(F)(F)CCCOc1ccc2nc(-c3ccc(-c4nc5ccc(OCCCC(F)(F)F)cc5[nH]4)cc3)[nH]c2c1 [Compound 281],> 200 µM,–
CN(C)CC(=O)Nc1ccc2nc(-c3ccc(-c4nc5ccc(NC(=O)CN(C)C)cc5[nH]4)cc3)[nH]c2c1 [Compound 63],–,10.7 µM
"CCCNC(=O)c1ccc2nc(-c3ccc(-c4nc5ccc(C(=O)NCCC)cc5[nH]4)cc3)[nH]c2c1 [Compound 52, 2,2′-(1,4-phenylene)bis(N-propyl-1H-benzo[d]imidazole-6-carboxamide)]",–,> 200 µM
"CN(C)CCCOc1ccc2nc(-c3ccc(-c4nc5ccc(OCCCO)cc5[nH]4)cc3)[nH]c2c1 [Compound 222, 3-((2-(4-(5-(3-(dimethylamino)propoxy)-1H-benzo[d]imidazol-2-yl)phenyl)-1H-benzo[d]imidazol-5-yl)oxy)propan-1-ol]",95.3 µM,–

SMILES,IC50 (Table M),IC50 (Table L)
"CN(C)CCCOc1ccc2nc(-c3ccc(-c4nc5ccc(C(=O)OC(C)(C)C)cc5[nH]4)cc3)[nH]c2c1 [Compound 254, tert-butyl 2-(4-(6-(3-(dimethylamino)propoxy)-1H-benzo[d]imidazol-2-yl)phenyl)-1H-benzo[d]imidazole-6-carboxylate]",> 200 µM,–
Cn1c(-c2ccc(-c3nc4ccccc4n3C)cc2)nc2ccccc21 [Compound 82],–,> 200 µM
CN1CCC(Oc2ccc3nc(-c4ccc(-c5nc6ccc(OC7CCN(C)CC7)cc6[nH]5)cc4)[nH]c3c2)CC1 [Compound 208],101 µM,–
CN(C)CCOCCOc1ccc(-c2nc3cc(-c4ccc5[nH]c(-c6ccc(OCCOCCN(C)C)cc6)nc5c4)ccc3[nH]2)cc1 [Compound 367],21.5 µM,–
CN(C)CCCOc1ccc(-c2nc3cc(-c4ccc5[nH]c(-c6ccc(C(=O)NCCCN=[N+]=[N-])cc6)nc5c4)ccc3[nH]2)cc1 [Compound 400],14.8 µM,–
Cc1cc(-c2nc3cc(-c4ccc5[nH]c(-c6ccc(OCCCN(C)C)c(C)c6)nc5c4)ccc3[nH]2)ccc1OCCCN(C)C [Compound 364],7.64 µM,–
COCCn1c(-c2ccc(-c3nc4cc(OCCCN(C)C)ccc4[nH]3)cc2)nc2cc(OCCCN(C)C)ccc21 [Compound 329],> 200 µM,–
CN(C)CCNC(=O)c1ccc(-c2nc3ccc(-c4ccc5nc(-c6ccc(C(=O)Nc7cccc(-c8cn(CCCNCC(=O)N9CCC[C@H]9C(=O)N9CCC[C@H]9C(=O)N9CCCC9C(=O)N9CCC[C@H]9C(=O)N(CCCn9cc(-c%10cccc(NC(=O)c%11ccc(-c%12nc%13ccc(-c%14ccc%15nc(-c%16ccc(C(=O)NCCN(C)C)cc%16)[nH]c%15c%14)cc%13[nH]%12)cc%11)c%10)nn9)CC(N)=O)nn8)c7)cc6)[nH]c5c4)cc3[nH]2)cc1 (some centres unmarked) [Compound 436],2.6 µM,–
C[C@@H](CN(C)C)NC(=O)c1ccc(-c2nc3cc(-c4ccc5[nH]c(-c6ccc(C(=O)N[C@@H](C)CN(C)C)cc6)nc5c4)ccc3[nH]2)cc1 [Compound 389],34.2 µM,–
"NCc1cccc(Oc2ccc3nc(-c4ccc(-c5nc6ccc(Oc7cccc(CN)c7)cc6[nH]5)cc4)[nH]c3c2)c1 [Compound 234, (((2,2′-(1,4-phenylene)bis(1H-benzo[d]imidazole-6,2-diyl))bis(oxy))bis(3,1-phenylene))dimethanamine]",39.8 µM,–
"Nc1ccc(-c2nc3cc(-c4ccc5[nH]c(-c6ccc(N)cc6)nc5c4)ccc3[nH]2)cc1 [Compound 95, 4,4′-(1H,1′H-[5,5′-bibenzo[d]imidazole]-2,2′-diyl)dianiline]",–,106 µM
CN1CCC[C@H]1COc1ccc2nc(-c3ccc(-c4nc5ccc(O)cc5[nH]4)cc3)[nH]c2c1 [Compound 196],106 µM,–
"Cn1c(-c2ccc(-c3nc4ccc(N)cc4n3C)cc2)nc2ccc(N)cc21 [Compound 85, 2,2′-(1,4-phenylene)bis(1-methyl-1H-benzimidazol-6-amine)]",–,> 200 µM
COC(=O)[C@H](CCCNC(=N)N)NC(=O)c1ccc2nc(-c3ccc(-c4nc5ccc(C(=O)N[C@@H](CCCNC(=N)N)C(=O)OC)cc5[nH]4)cc3)[nH]c2c1 [Compound 39],–,4.4 µM
N=C(N)c1ccc(-c2nc3cc(-c4ccc5[nH]c(-c6ccc(C(=N)N)cc6)nc5c4)ccc3[nH]2)cc1 [Compound 99],–,15.2 µM
C[C@@H](NC(=O)CN(CCN)C(=O)c1ccc(-c2nc3cc(-c4ccc5[nH]c(-c6ccc(OCCCN(C)C)cc6)nc5c4)ccc3[nH]2)cc1)C(=O)N[C@H](C)C(=O)N[C@H](C)C(=O)N[C@H](C)C(=O)N(CCNC(=O)c1ccc(-c2nc3cc(-c4ccc5[nH]c(-c6ccc(OCCCN(C)C)cc6)nc5c4)ccc3[nH]2)cc1)CC(N)=O [Compound 447],22.6 µM,–
